Assay results as given in publication doi:10.1101/365775v1 (biorxiv, 2018).

Molecular target: T1, mSec18 (monomeric Sec18; Sec18His8) (Saccharomyces cerevisiae, UniProt P18759)
T1 sequence (P18759 1-758): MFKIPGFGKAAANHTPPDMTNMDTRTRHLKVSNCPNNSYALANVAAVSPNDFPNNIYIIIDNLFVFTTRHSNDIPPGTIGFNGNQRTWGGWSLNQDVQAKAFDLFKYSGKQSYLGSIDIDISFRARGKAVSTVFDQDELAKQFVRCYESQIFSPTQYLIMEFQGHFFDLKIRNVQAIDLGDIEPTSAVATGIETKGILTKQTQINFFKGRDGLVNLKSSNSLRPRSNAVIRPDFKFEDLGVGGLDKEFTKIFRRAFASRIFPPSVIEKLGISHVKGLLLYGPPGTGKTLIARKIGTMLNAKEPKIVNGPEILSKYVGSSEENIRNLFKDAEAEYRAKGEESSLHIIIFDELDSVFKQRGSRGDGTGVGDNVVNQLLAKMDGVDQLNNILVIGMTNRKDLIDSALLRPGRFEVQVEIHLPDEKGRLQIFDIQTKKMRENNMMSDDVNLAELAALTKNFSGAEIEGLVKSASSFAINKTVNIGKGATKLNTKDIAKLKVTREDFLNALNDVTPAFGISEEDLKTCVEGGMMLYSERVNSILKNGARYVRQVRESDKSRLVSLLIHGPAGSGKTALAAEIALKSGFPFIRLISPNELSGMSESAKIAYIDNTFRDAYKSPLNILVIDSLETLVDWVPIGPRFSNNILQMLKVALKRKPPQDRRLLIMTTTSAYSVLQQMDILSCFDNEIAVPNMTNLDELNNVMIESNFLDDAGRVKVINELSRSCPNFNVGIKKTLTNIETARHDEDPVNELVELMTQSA
Assay: microscale thermophoresis
Assay type: binding

Nc1ncnc2c1ncn2[C@@H]1O[C@H](COP(=O)(O)OP(=O)(O)OP(=O)(O)O)[C@@H](O)[C@H]1O [ATP]
Kd: 56 ± 16 µM
